Assay results as given in US20050266014A1, “Tumor antigen based on products of the tumor suppressor gene WT1” (HARUO SUGIYAMA, priority 1998, published 2005).
Read-outs that look alike come from different tables or passages of the source. Blank lines part the entries; values can stand above or below the molecule they belong to. No end group written: not given here.

Legend:
HLA-A* 0201 = target: T1, HLA-A* 0201 (Homo sapiens, UniProt P04439, D140Y/D185E/D98H/E176V/E277Q/G131W/G231S/I119V/I121R/I166T/I218V/L300P/L318F/N151K/N90K/P208A/P217A/Q86G/Q94H/R138H/R169H/T345S); experiment: Binding of peptides to HLA-A* 0201 on T2 cells (FACS, binding dissociation constant); details: 37° C. 1 hour
T1 construct: T2 cells having the empty HLA-A* 0201 molecules; endogenous in cells; host or cells: T2 cells

induced CTL = experiment: FACS analysis of surface markers of induced CTL, Example 3; type: cell-based; details: human CTL, FIGS. 5 to 10
Method: One week later, T2 cells that were irradiated after incubating for 1 hour with the peptide (20 μg/ml) were added to the above culture system for restimulation. From the following day, human IL-2 (final concentration 100 JRU/ml) was added to the culture.
Subsequently, after repeating, for five times, stimulation with the T2 cells that were irradiated after being pulsed with the peptide, a killing assay was performed using, as the target, the T2 cells pulsed with the peptide or the T2 cells not pulsed with the peptide. The surface markers of the induced CTL were subjected to FACS analysis.

K^b of MHC class I = target: T2, K^b of MHC class I (Mus musculus, UniProt P01901); experiment: Binding of peptides to K^b on RMA-S cells (fluorescent antibody staining, binding dissociation constant); details: peptide 37° C. 1 hour
T2 construct: the cell line (RMA-S) that expresses K^b and D^b molecules; endogenous in cells; host or cells: RMA-S cells
T2 sequence (P01901 22-369): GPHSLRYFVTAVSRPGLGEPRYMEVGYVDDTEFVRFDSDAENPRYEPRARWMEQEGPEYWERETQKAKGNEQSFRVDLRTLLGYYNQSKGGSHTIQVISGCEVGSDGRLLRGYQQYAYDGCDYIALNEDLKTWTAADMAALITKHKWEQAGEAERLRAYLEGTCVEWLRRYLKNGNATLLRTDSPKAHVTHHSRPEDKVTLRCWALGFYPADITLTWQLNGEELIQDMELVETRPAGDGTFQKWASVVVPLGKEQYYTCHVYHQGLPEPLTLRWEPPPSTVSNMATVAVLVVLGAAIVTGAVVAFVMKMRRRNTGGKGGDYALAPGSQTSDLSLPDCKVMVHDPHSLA
T2 sequence (P01887 21-119 partner): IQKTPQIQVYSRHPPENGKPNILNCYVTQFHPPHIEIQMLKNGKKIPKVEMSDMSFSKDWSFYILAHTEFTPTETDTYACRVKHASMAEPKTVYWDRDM
Method: (§1) Thus, RMA-S was cultured at 26° C. to effect high expression of MHC class I, and the cultured cells were incubated with the solutions of the test peptides at 37° C. for 1 hour. […] Then using fluorescently labeled monoclonal antibody that recognizes MHC class I (K^b, D^b), RMA-S cells were stained. Finally, the binding dissociation constant was calculated from the average amount of fluorescence per cell (Immunol. Lett., 47: 1, 1995).

D^b of MHC class I = target: T3, D^b of MHC class I (Mus musculus, UniProt P01899); experiment: Binding of peptides to D^b on RMA-S cells (fluorescent antibody staining, binding dissociation constant)
T3 construct: the cell line (RMA-S) that expresses K^b and D^b molecules; endogenous in cells; host or cells: RMA-S cells
T3 sequence (P01899 25-362): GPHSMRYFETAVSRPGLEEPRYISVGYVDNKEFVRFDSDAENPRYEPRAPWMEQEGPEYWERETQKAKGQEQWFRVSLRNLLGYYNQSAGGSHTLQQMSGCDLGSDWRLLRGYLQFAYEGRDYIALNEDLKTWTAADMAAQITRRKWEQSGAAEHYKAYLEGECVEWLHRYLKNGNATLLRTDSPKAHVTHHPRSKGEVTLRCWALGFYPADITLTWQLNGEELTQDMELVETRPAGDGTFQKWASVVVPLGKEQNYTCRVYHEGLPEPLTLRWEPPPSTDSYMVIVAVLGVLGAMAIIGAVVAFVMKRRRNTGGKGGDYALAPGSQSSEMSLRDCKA
T3 sequence (P01887 21-119 partner): T2 sequence (P01887 21-119 partner)
Method: Thus, RMA-S was cultured at 26° C. to effect high expression of MHC class I, and the cultured cells were incubated with the solutions of the test peptides at 37° C. for 1 hour. […] Then using fluorescently labeled monoclonal antibody that recognizes MHC class I (K^b, D^b), RMA-S cells were stained.

[1] = target: T4, D^b of mouse MHC class I, on RMA-S cells (mouse, UniProt P01887 21-119; P01899 25-362); experiment: MHC stabilisation on RMA-S cells, staining with fluorescent anti-MHC class I antibody, flow cytometry
T4 construct: whole, on cells; Empty MHC class I on RMA-S cells cultured at 26 C; also called H-2D^b
T4 sequence (MHC heavy, looked up): T3 sequence (P01899 25-362)
T4 sequence (b2m, looked up): T2 sequence (P01887 21-119 partner)
Method: as §1

[2] = target: T5, K^b of mouse MHC class I, on RMA-S cells (mouse, UniProt P01887 21-119; P01901 22-369); experiment: as above
T5 construct: whole, on cells; Empty MHC class I on RMA-S cells cultured at 26 C; also called H-2K^b
T5 sequence (MHC heavy, looked up): T2 sequence (P01901 22-369)
T5 sequence (b2m, looked up): T2 sequence (P01887 21-119 partner)
Method: as §1

HLA-A* 0201, on T2 cells = target: T6, HLA-A* 0201, on T2 cells (human); experiment: peptide binding to empty HLA-A*0201 on T2 cells, staining with fluorescent anti-HLA-A2.1 antibody, FACS
T6 construct: whole, on cells; Empty HLA-A*0201 molecules on T2 cells; also called HLA-A2.1; A* 0201 of human HLA
Method: The above peptides and T2 cells having the empty HLA-A* 0201 molecules (J. Immunol., 150: 1763, 1993; Blood, 88: 2450, 1996) were incubated at 37° C. for 1 hour, and then the T2 cells were stained with fluorescently labeled monoclonal antibody that recognizes HLA-A2.1 to calculate the binding dissociation constant based on the average amount of fluorescence per cell in the FACS analysis.

[3] = RMA-S cells, peptide 37° C. 1 hour, read-out: binding dissociation constant (Kd value) with D^b (converted)

- Kd (HLA-A* 0201): 7610 nM
Molecule: SLGEQQYSV [WH 187]
- surface markers of induced CTL (CD4, CD8) (induced CTL): The CD4-positive cells and the CD8-positive cells were almost equal in the number

- Kd (K^b of MHC class I): 1730 nM
Molecule: CNKRYFKL [K^b 330]

- Kd (D^b of MHC class I; [3]): 715 nM
Molecule: CMTWNQMNL [D^b 235]

- Kd (D^b of MHC class I; [3]): 1760 nM
Molecule: YSSDNLYQM [D^b 221]

- Kd (K^b of MHC class I): 26400 nM
Molecule: GASAYGSL [K^b 45]

- Kd (D^b of MHC class I): 521 nM
Molecule: CSCC[C@H](NC(=O)[C@@H](N)CCCNC(=N)N)C(=O)N[C@@H](Cc1ccccc1)C(=O)N1CCC[C@H]1C(=O)N[C@@H](CC(N)=O)C(=O)N[C@@H](C)C(=O)N1CCC[C@H]1C(=O)N[C@@H](Cc1ccc(O)cc1)C(=O)N[C@@H](CC(C)C)C(=O)O [D^b 126]

- log of binding dissociation constant (Kd) [1]: -5.75 log
Molecule: YSSDNLYQM [D^b 221 peptide]

- log of binding dissociation constant (Kd) [2]: -5.76 log
Molecule: CNKRYFKL [K^b 330 peptide]

- log of binding dissociation constant (Kd) [2]: -4.58 log
Molecule: GASAYGSL [K^b 45 peptide]

- log of binding dissociation constant (Kd) [1]: -6.15 log
Molecule: CMTWNQMNL [D^b 235 peptide]

- Kd (HLA-A* 0201, on T2 cells): 7610 nM
Molecule: SLGEQQYSV [WH 187 peptide]

- log of binding dissociation constant (Kd) [1]: -6.28 log
B1: D^b 126 peptide (peptide)
peptide: RMFPNAPYL
notes: It was tested on both H-2D^b and HLA-A*0201
